From US8222419B2, “Oxepin derivative” (Nippon Zoki Pharmaceutical Co., Ltd., priority 2006, dated 2012) come the findings set out here.

As usually defined, the melting point is the temperature, or range, at which the solid turns liquid.

For one data set, the target named is T1, H1 receptor (Mus musculus, UniProt P70174).
T1 construct: The excised brain tissue was homogenized with Polytron; from tissue; host or cells: entire brain except cerebellum and medulla oblongata, homogenate
As to the kind of experiment: Murine intracranial H1 receptor content (ex vivo), 3H-pyrilamine binding in brain homogenate after oral dosing. The conditions noted are these: for ID50 (mg/kg)/ED50 (mg/kg): ID50 of intracranial receptor binding test (Table 7) divided by ED50 of histamine-induced vascular hyperpermeability test (Table 6); for ED50: mouse, oral administration, brain excised after 1 hour, 3H-pyrilamine 2 nmol/L binding to brain homogenate, read-out: ID50 (the source's name).

The subject of data set [1] is histamine-induced vascular hyperpermeability. As to the kind of experiment: Rat histamine-induced vascular hyperpermeability reaction (in vivo antihistamine action). The conditions noted are these: SD male rat, oral administration 1 hour before intracutaneous histamine (20 μg/location), Evans Blue leakage after 30 minutes. As for the experimental part: Rat Histamine-Induced Vascular Hyperpermeability Reaction (in Vivo Antihistamine Action)
An SD male rat (SPF) of 180 g in weight was previously fed for one week or more by allowing the rat to take a solid feed and tap water ad libitum, under the environment setting of a temperature of 22° C., humidity of 55% and an artificial illumination of 12 hours a day (light phase 8 am to 8 pm), and the rat was fasted overnight to be used for the experiment. Histamine-dihydrochloride (hereinafter referred to as histamine) and Evans Blue were used by dissolving each in physiological saline upon use. A substance to be tested was dissolved in water for injection or suspended in 0.5% carboxymethyl cellulose sodium, and the rat was orally administered with the solution or suspension (dose volume: 5 mL/kg body weight). After 1 hour from the administration, the physiological saline and the histamine solution were each intracutaneously injected to two locations (20 μg/0.05 ml/location) each on a back part of the rat of which hair was sheared with an electric clipper while anesthetizing with an ether. A 0.5% Evans Blue-containing physiological saline was injected intravenously to the tail (1 mL/200 g body weight) of the rat immediately before the intracutaneous injection of the histamine.
After 30 minutes, the animal was decapitated, and allowed to bleed lethally, and the skin was removed to measure an amount of leaked pigment in the blue-stained portion. The measurement of the amount of leaked pigment was carried out as follows. Skins of the pigment leaking site were cut out at two locations, 1 mL of a 2 mol/L aqueous potassium hydroxide solution was added thereto in a test tube, and the test tube was allowed to stand overnight at 37° C. to dissolve. Thereafter, 6 mL of a 1:3 mixed solution of 0.67 mol/L phosphoric acid and acetone was added to the solution, and the mixture was vigorously shaken for 10 minutes. Thereafter, the mixture was filtered, and the absorbance of the filtrate at 620 nm was measured. The absorbance obtained from the two locations of the sites injected with physiological saline, obtained as blank value, was used for a compensation. The amount of leaked pigment was calculated from the calibration curve of Evans Blue at 620 nm.

T1 sequence (P70174 whole entry): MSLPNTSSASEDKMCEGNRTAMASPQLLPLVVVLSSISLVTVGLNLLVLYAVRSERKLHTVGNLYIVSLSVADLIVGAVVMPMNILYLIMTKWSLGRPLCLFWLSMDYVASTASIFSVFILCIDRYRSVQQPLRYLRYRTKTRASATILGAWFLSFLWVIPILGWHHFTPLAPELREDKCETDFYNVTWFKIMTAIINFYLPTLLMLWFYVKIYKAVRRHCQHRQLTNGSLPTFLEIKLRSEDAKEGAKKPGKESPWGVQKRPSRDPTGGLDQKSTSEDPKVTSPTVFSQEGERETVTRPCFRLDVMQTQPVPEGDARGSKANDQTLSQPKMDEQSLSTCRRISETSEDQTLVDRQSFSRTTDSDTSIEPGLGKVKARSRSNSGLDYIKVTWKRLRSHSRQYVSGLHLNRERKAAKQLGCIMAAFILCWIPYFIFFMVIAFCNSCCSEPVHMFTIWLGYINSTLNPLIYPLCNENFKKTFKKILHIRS

Turning to `CN1CCC(=C2c3ccccc3COc3ccc(NC(N)=O)cc32)CC1` [Compound 17, [11-(1-Methylpiperidin-4-ylidene)-6,11-dihydrodibenz[b,e]oxepin-2-yl]urea], the melting point was 183 °C (dec.). Also, at H1 receptor, the “ID50 (mg/kg)/ED50 (mg/kg)” value is given as 60.6 and the ED50 turned out to be 37.6 mg/kg. Moreover, in data set [1], the ED50 is 0.62 mg/kg.

Turning to `CN1CCC(=C2c3ccccc3COc3ccc(CC(=O)O)cc32)CC1` [Compound 24, [11-(1-Methylpiperidin-4-ylidene)-6,11-dihydrodibenz[b,e]oxepin-2-yl]acetic acid], the melting point was 226 °C (dec.). Further, at H1 receptor, the “ID50 (mg/kg)/ED50 (mg/kg)” value is 53.3 and the ED50 was 1.6 mg/kg. The molecule also had an ED50 in data set [1] of 0.03 mg/kg.
